Laboratory results taken from ChEMBL document CHEMBL5247656, “Discovery of a Potent, Cooperative, and Selective SOS1 PROTAC ZZ151 with In Vivo Antitumor Efficacy in KRAS-Mutant Cancers” (J Med Chem, 2023).
Calls of active or inactive are those of the source. The calls are words filed in the database; no cut-off is given here.

Experiments:
[1] = molecular target: T1, von Hippel-Lindau disease tumor suppressor/Son of sevenless homolog 1 (Homo sapiens) (UniProt Q07889+P40337); assay: PROTAC activity at VHL/SOS1 in human A549 cells harboring KRAS G12S mutant assessed as induction of SOS1 degradation at 1 uM incubated for 2 to 4 hrs by Immunoblot analysis; type: cell-based; conditions: time 2-4 hrs
[2] = molecular target: T1, von Hippel-Lindau disease tumor suppressor/Son of sevenless homolog 1 (Homo sapiens); assay: PROTAC activity at VHL/SOS1 in human HCT-116 cells harboring KRAS G13D mutant assessed as induction of SOS1 degradation at 1 uM incubated for 2 to 4 hrs by Immunoblot analysis; type: cell-based; conditions: time 2-4 hrs
[3] = molecular target: T1, von Hippel-Lindau disease tumor suppressor/Son of sevenless homolog 1 (Homo sapiens); assay: (§1) PROTAC activity at VHL/SOS1 in human NCI-H358 cells harboring KRAS G12C mutant assessed as induction of SOS1 degradation at 1 uM preincubated with MG132 for 4 hrs followed by compound treatment and measured after 24 hrs by Immunoblot analysis; type: cell-based
[4] = molecular target: T1, von Hippel-Lindau disease tumor suppressor/Son of sevenless homolog 1 (Homo sapiens); assay: as §1, with “(R)-1-(4-(4-((1-(3-amino-5-(trifluoromethyl)phenyl)ethyl)amino)-7-methoxy-2-methylquinazolin-6-yl)piperidin-1-yl)ethanone” for “MG132”; type: cell-based
[5] = Acute toxicity in BALB/c mouse assessed as body weight loss at 12.5 to 100 mg/kg, ip administered once daily for 7 days; type: organism-based; conditions: in vivo, 168 h, dose 12.5-100 mg/kg, time 7 day
[6] = molecular target: T1, von Hippel-Lindau disease tumor suppressor/Son of sevenless homolog 1 (Homo sapiens); assay: PROTAC activity at VHL/SOS1 in human ASPC1 cells harboring KRAS G12D mutant assessed as induction of SOS1 degradation at 1 uM incubated for 2 to 4 hrs by Immunoblot analysis; type: cell-based; conditions: time 2-4 hrs
[7] = molecular target: T2, Son of sevenless homolog 1 (Homo sapiens) (UniProt Q07889); assay: Induction of SOS1 degradation in human ASPC1 cells at 1 uM incubated for 6 hrs by quantitative proteomics analysis; type: cell-based
T2 sequence (whole entry): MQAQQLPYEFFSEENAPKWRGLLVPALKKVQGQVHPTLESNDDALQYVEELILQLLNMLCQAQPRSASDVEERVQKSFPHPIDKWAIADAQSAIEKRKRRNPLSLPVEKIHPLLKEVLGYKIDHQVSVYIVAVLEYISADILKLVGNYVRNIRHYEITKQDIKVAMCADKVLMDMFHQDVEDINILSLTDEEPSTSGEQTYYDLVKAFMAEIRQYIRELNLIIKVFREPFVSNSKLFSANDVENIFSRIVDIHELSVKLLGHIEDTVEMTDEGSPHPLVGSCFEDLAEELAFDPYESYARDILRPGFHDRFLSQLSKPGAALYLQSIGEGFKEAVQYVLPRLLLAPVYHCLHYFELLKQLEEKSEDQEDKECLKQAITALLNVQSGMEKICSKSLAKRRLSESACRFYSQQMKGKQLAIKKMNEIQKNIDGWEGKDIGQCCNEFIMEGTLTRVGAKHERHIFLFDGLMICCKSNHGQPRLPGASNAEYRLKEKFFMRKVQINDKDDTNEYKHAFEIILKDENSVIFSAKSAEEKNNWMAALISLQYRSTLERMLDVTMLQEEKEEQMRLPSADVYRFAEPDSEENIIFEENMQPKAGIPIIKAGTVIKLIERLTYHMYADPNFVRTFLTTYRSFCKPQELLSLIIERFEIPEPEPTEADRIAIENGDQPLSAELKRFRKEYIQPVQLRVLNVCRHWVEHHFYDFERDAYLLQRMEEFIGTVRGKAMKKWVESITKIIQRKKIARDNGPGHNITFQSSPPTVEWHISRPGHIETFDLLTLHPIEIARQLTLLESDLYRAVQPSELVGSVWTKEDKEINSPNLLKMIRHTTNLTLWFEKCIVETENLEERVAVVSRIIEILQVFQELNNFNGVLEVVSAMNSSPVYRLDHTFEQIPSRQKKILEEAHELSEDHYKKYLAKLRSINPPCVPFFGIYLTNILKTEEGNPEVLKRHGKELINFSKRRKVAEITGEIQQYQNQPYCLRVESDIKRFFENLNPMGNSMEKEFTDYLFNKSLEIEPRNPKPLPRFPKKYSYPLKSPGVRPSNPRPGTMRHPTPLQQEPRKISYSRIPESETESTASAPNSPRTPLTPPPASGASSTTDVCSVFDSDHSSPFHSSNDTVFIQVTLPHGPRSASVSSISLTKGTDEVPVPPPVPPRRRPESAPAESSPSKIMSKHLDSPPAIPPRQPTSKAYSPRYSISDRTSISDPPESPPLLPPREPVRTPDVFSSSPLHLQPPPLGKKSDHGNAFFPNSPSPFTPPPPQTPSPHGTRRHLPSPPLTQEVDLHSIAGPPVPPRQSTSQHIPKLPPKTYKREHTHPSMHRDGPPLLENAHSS

[8] = molecular target: T1, von Hippel-Lindau disease tumor suppressor/Son of sevenless homolog 1 (Homo sapiens); assay: PROTAC activity at VHL/SOS1 in human SK-CO-1 cells harboring G12V mutant assessed as induction of SOS1 degradation by measuring maximal efficacy at 1 to 2000 nM incubated for 24 hrs by Immunoblot analysis relative to control; type: cell-based; conditions: dose 1-2000 nM
SW-620 = assay: Antitumor activity against human SW620 cells harboring KRAS G12V mutant xenografted in BALB/c nude mouse assessed as tumor growth inhibition at 20 mg/kg, ip administered once daily for 2 weeks relative to control; type: functional; conditions: SW-620, 336 h, read-out: TGI
[9] = molecular target: T1, von Hippel-Lindau disease tumor suppressor/Son of sevenless homolog 1 (Homo sapiens); assay: PROTAC activity at VHL/SOS1 in human A549 cells harboring KRAS G12S mutant assessed as induction of SOS1 degradation by measuring maximal efficacy at 1 to 2000 nM incubated for 24 hrs by Immunoblot analysis relative to control; type: cell-based; conditions: dose 1-2000 nM
[10] = molecular target: T1, von Hippel-Lindau disease tumor suppressor/Son of sevenless homolog 1 (Homo sapiens); assay: In vivo PROTAC activity at VHL/SOS1 in human SW620 cells harboring KRAS G12V mutant xenografted BALB/c nude mouse assessed as induction of SOS1 degradation in tumor at 10 to 20 mg/kg, ip administered once daily for 2 weeks by immunohistochemistry analysis; type: functional, organism-based; conditions: SW-620, dose 10-20 mg/kg
[11] = Half-life in BALB/c mouse at 10 mg/kg, ip measured upto 24 hrs by LC-MS/MS analysis; type: ADME, organism-based; conditions: in vivo
[12] = molecular target: T1, von Hippel-Lindau disease tumor suppressor/Son of sevenless homolog 1 (Homo sapiens); assay: PROTAC activity at VHL/SOS1 in human SNU1 cells harboring KRAS G12D mutant assessed as induction of SOS1 degradation by measuring maximal efficacy at 1 to 2000 nM incubated for 24 hrs by Immunoblot analysis relative to control; type: cell-based; conditions: dose 1-2000 nM
NCI-H358 = assay: Antiproliferative activity against human NCI-H358 cells harboring KRAS G12C mutant assessed as inhibition of cell proliferation incubated for 7 days by CellTiterGlo-3D proliferation assay; type: functional, cell-based; conditions: NCI-H358, 168 h
[13] = molecular target: von Hippel-Lindau disease tumor suppressor/Son of sevenless homolog 1 (Homo sapiens, UniProt P40337+Q07889, Q61H); assay: PROTAC activity at VHL/SOS1 in human NCI-H460 cells harboring KRAS Q61H mutant assessed as induction of SOS1 degradation incubated for 24 hrs by Immunoblot analysis; type: cell-based

T1 sequence (P40337 whole entry, looked up, one chain of several): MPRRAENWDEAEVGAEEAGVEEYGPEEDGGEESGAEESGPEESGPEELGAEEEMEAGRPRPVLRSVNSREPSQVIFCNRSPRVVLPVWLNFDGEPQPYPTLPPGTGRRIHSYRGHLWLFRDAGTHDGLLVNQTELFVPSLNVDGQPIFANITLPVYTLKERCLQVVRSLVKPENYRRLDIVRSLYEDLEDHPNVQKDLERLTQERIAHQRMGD

In the case of `COc1cc2nc(C)nc(N[C@H](C)c3cc(N)cc(C(F)(F)F)c3)c2cc1C1CCN(C(=O)CCCCCC(=O)N[C@H](C(=O)N2C[C@H](O)C[C@H]2C(=O)N[C@@H](C)c2ccc(-c3scnc3C)cc2)C(C)(C)C)CC1`, the Activity [1] is reported as “Active”, the Activity [2] is reported as “Active” and the Activity [3] is reported as “inactive”. The Activity [4] was “inactive”, the Activity [5] was “Non-Toxic” and the Activity [6] was “Active”. The Activity [7] was “Active”, the Emax [8] was greater than 95% and the inhibition in vivo at 20 mg/kg (SW-620) was 65.4%. The Emax [9] was greater than 95%, the Activity [10] was “Active” and the half-life [11] was 9.69 h. For the same molecule, the Emax [12] was greater than 95%, the IC50 (NCI-H358) was 12.9 nM and the EC50 [13] was 81.7 nM.
